Data on 1 sequence can be found in patent US20100160228A1, “METHOD FOR INHIBITING OR STIMULATING ANGIOGENESIS IN AN INDIVIDUAL” (VALTION TEKNILLINEN TUTKIMUSKESKUS, priority 2007, published 2010).

The subject of experiment [1] is HUVEC. Briefly: Fibrin-gel in vitro angiogenesis (capillary tube formation) assay. In kind it is cell-based, human. The note with it: VEGF, 24 h, FIG. 5A. On the procedure:
(§1) FIG. 5. Controlled TCPTP activation inhibits VEGF-driven capillary formation, chemokinesis and chemotaxis. (A) HUVEC were cultured in fibrin gels and treated with or without VEGF and TAT peptides (200 nM). After 24 h the formation of capillary tubes was semiquantitatively scored. (B) HUVEC were plated on gelatin in the presence of the peptides (200 nM) or left untreated for 1 h. The cells were stimulated as indicated and migration of individual cells was tracked using time-lapse microscopy. Cumulative migration distance was plotted for randomly picked individual cells. (C) HUVEC were treated with 200 nM peptides and the transmigration assay was performed as in FIG. 3D. (D) HUVEC were transfected with siRNA against TCPTP or a control siRNA, and TCPTP expression was analysed with immunofluorescence. Equal exposures of TCPTP (green) and DAPI (blue) stainings are shown. 48 h post-transfection cells were subjected to transmigration assay as in […].
Tube formation assays. In the fibrin-gel in vitro angiogenesis assay (Chemicon) HUVEC were plated onto a fibrin-gel, and overlaid with a second fibrin-gel after an overnight culture. […] At the 24 h end-point the formation of cellular networks was quantified from three randomly-selected fields from each well. […] In the collagen overlay assay the number of closed polygons formed by capillary tubes was quantified.

The subject of experiment [2] is HUVEC. The experiment can be described thus: Transwell chemotaxis assay towards VEGF. In kind it is cell-based, human. On the procedure: FIG. 3. TCPTP activity controls VEGF-dependent responses in endothelial cells. (A) HUVEC were transfected with the constitutively active TCPTP (TC37) or vector control (pCG), stimulated or not with VEGF, and stained for VEGFR2 (red) and nuclei (blue) after fixation and permeabilization. Arrows indicate VEGFR2 vesicles. (B) HUVEC were treated as in (A) and subjected to trypsin digestion on ice. VEGFR2 protected from trypsin (=internalized pool) was detected by immunoblotting. The intensities of VEGFR2 bands were quantified and are expressed relative to pCG-VEGF control. A representative experiment out of 2 with similar results is shown. (C) HUVEC were transfected with no oligo, siRNA against TCPTP or a control siRNA, and TCPTP expression was measured using immunoblotting. Cells were treated with 80 ng/ml VEGF and proliferation of sparse cells plated on gelatin was assayed after 16 h using BrdU-based assay (mean±SD; n=4-6; *, p<0.05). (D) HUVEC were transfected as in (A) and chemotaxis towards VEGF was measured using a Transwell assay for 4 hours. Cells adhering to the bottom of the filter were fixed and stained with crystal violet. Number of migrated cells was counted (mean±SEM, n=3).
as §1
Chemotaxis assays. HUVEC electroporated with the DNA or siRNA or non-transfected HUVEC were treated with 200 nM α1TAT, ScrTAT or left untreated for 1 h. Transwell filters (8 μm pore size, Costar, Cambridge, Mass.) were coated with gelatin and medium (RPMI, 4 mM L-glutamine, 10% FBS) and VEGF (100 ng/ml) were added to the lower chamber. Cells were harvested from the culture plates, and transferred into the Transwell inserts (4×10^5 cells/well) in RPMI with 0.2% soybean trypsin inhibitor. […] The inserts were fixed in 4% paraformaldehyde, cells stained with 0.5% crystal violet and the number of migrated cells was counted using a microscope.

Setting [3] is: HUVEC, 48 h post-transfection, FIG. 5D.

On to “YGRKKRRQRRRWKLGFFKRPLKKKMEK (SEQ ID NO 3) [α1TAT]”, for which, in the experiment on HUVEC [1], the “inhibition of capillary tube formation compared to control peptide treated cells” value was 40% and the “inhibition of capillary tube formation compared to non-treated cells” value is on record as 60%. In the experiment on HUVEC [2] (setting [3]), the “effect on VEGF induced chemotaxis of TCPTP siRNA-treated cells” value was “no inhibitory effects” and the “effect on VEGF-induced migration of scrambled siRNA treated cells” value is “effectively inhibited”. Besides, the “inhibition of VEGF-induced chemotaxis of HUVEC” value with HUVEC [2] (peptide 200 nM, Transwell 4 h, FIG. 5C) was “inhibited”.
